Data reported in the supplement of paper PMC11451515.

Key:
Assay in all cases: AUC of viability dose-response curve (% viability x log10 dose units); higher = less sensitive
Settings in all cases: 48 h
P12-Ichikawa = tested on: P12-Ichikawa
Outline: (§1)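 Over 48 h at 37°C, leukemia cells in 1536-well plates (500 or 1000 cells/well), adapted to each medium, received library compounds in DMSO at 11 threefold doses from 47 μM to 0.79 nM. CellTiter-Glo One luminescence, normalised per plate to DMSO and cell-free wells, was fitted by a four-parameter log-logistic function of log10 dose. The area under the curve was then integrated by trapezoidal rule, after scaling curves above full viability and removing those that failed quality control.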

NOMO1 = tested on: NOMO1
Outline: as §1

SEM cells = tested on: SEM cells
Outline: as §1

[1] = RPMI 5 mM glucose + 10% dialyzed FBS

Structure (SMILES)	AUC of viability dose-response curve (P12-Ichikawa; HPLM + 10% dialyzed FBS)	AUC of viability dose-response curve (P12-Ichikawa; RPMI 5 mM glucose + 10% FBS)	AUC of viability dose-response curve (P12-Ichikawa; [1])	AUC of viability dose-response curve (NOMO1; HPLM + 10% dialyzed FBS)	AUC of viability dose-response curve (NOMO1; RPMI 5 mM glucose + 10% FBS)	AUC of viability dose-response curve (NOMO1; [1])	AUC of viability dose-response curve (SEM cells; HPLM + 10% dialyzed FBS)	AUC of viability dose-response curve (SEM cells; RPMI 5 mM glucose + 10% FBS)	AUC of viability dose-response curve (SEM cells; [1])
CC1(C)O[C@@H]2C[C@H]3[C@@H]4C[C@H](F)C5=CC(=O)C=C[C@]5(C)[C@@]4(F)[C@@H](O)C[C@]3(C)[C@]2(C(=O)CO)O1	324	303	272	460	460	457	305	314	291
CC[S+](=O)([O-])c1cccc(-c2cc(C(=O)NC3CCN(C)CC3)c(C)c3[nH]c4ncc(C)cc4c23)c1	298	290	320	354	385	359	312	285	297
COc1ccc([C@@H]2CC(=O)c3c(O)cc(O[C@@H]4O[C@H](CO[C@@H]5O[C@@H](C)[C@H](O)[C@@H](O)[C@H]5O)[C@@H](O)[C@H](O)[C@H]4O)cc3O2)cc1O	467	468	473	477	457	468	465	469	469
CCN1CCN(CC1)CC(=O)NC2=CC=C(C3=C2C4=C(S3)C=CC=C4)C5=C6O\C(=C/C(=O)C6=CC=C5)N7CCOCC7	464	447	453	420	442	432	337	337	338
COc1cc(OC2CCN(C)CC2)ccc1Nc1ncc2c(n1)n(C1CCCC1)c(=O)n2C	408	380	363	427	373	393	326	346	324
